Data set [1] concerns Monocotyledonous and dicotyledonous weed. Description: Post-emergence test experiment, weed control effect (Table 2). The class given is in vivo. Conditions: 30 g/ha, 3 weeks after spraying, greenhouse. Also on record: key to weed control effect, Setaria viridis (level) / weed control effect, Rorippa indica (level) / weed control effect, Abutilon theophrasti (level) / weed control effect, Echinochloa crus-galli (level) / weed control effect, Digitaria sanguinalis (level): Level 10: completely dead; Level 9: above 90% growth inhibition rate; Level 8: above 80% growth inhibition rate; Level 7: above 70% growth inhibition rate; Level 6: above 60% growth inhibition rate; Level 5: above 50% growth inhibition rate; Level 4: above 30% growth inhibition rate; Level 3: above 20% growth inhibition rate; Level 2: above 10% growth inhibition rate; Level 1: above 1-10% growth inhibition rate; Level 0: no effect. The gist of the method:
(§1)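 Compounds, dissolved in acetone, mixed with Tween 80 and diluted in water, were sprayed post-emergence onto greenhouse-grown weeds and crops at the 2-3 leaf stage (2-3 weeks post-sowing). Plants then grown 3 more weeks in the greenhouse before evaluation.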

Data set [2] has as its system main crop (wheat, corn, rice, soybean, cotton, oilseed, millet and sorghum). Nature of the data set: Post-emergence test experiment, main crops (Table 2). The class given is in vivo. More on the design: key: Level 10: completely dead; Level 9: above 90% growth inhibition rate; Level 8: above 80% growth inhibition rate; Level 7: above 70% growth inhibition rate; Level 6: above 60% growth inhibition rate; Level 5: above 50% growth inhibition rate; Level 4: above 30% growth inhibition rate; Level 3: above 20% growth inhibition rate; Level 2: above 10% growth inhibition rate; Level 1: above 1-10% growth inhibition rate; Level 0: no effect. Conditions: 30 g/ha, 3 weeks after spraying, greenhouse. The gist of the method:
as §1

For `Cc1nn(C)cc1C(=O)Oc1c(C(=O)c2ccc(S(C)(=O)=O)c(COCC(F)(F)F)c2Cl)c(C2CC2)nn1C` [Compound 49], in data set [1], the “weed control effect, Abutilon theophrasti (level)” value is 7 (Level 7: above 70% growth inhibition rate); the “weed control effect, Bidens pilosa (level)” value is given as 7 (Level 7: above 70% growth inhibition rate); the “weed control effect, Digitaria sanguinalis (level)” value is given as 7 (Level 7: above 70% growth inhibition rate); the “weed control effect, Echinochloa crus-galli (level)” value is 10. In addition, in data set [1], the “weed control effect, Rorippa indica (level)” value worked out at 10 and the “weed control effect, Setaria viridis (level)” value is 9 (Level 9: above 90% growth inhibition rate). In addition, in data set [2], the “effect on crop, corn (level)” value was 0; the “effect on crop, rice (level)” value is recorded as 3 (Level 3: above 20% growth inhibition rate); the “effect on crop, wheat (level)” value was 0.

With `Cc1nn(C)cc1C(=O)Oc1c(C(=O)c2ccc(S(C)(=O)=O)c(COCC(F)F)c2Cl)c(C2CC2)nn1C` [Compound 50], in data set [1], the “weed control effect, Abutilon theophrasti (level)” value is 6 (Level 6: above 60% growth inhibition rate); the “weed control effect, Bidens pilosa (level)” value is on record as 7 (Level 7: above 70% growth inhibition rate); the “weed control effect, Digitaria sanguinalis (level)” value is given as 8 (Level 8: above 80% growth inhibition rate); the “weed control effect, Echinochloa crus-galli (level)” value was 10. Moreover, in data set [1], the “weed control effect, Rorippa indica (level)” value amounted to 10 and the “weed control effect, Setaria viridis (level)” value is listed as 9 (Level 9: above 90% growth inhibition rate). Further, in data set [2], the “effect on crop, corn (level)” value was 0; the “effect on crop, rice (level)” value is 3 (Level 3: above 20% growth inhibition rate); the “effect on crop, wheat (level)” value is given as 0.

As for `COCCCOCc1c(S(C)(=O)=O)ccc(C(=O)c2c(C3CC3)nn(C)c2OC(=O)c2cn(C)nc2C)c1Cl` [Compound 52], in data set [1], the “weed control effect, Abutilon theophrasti (level)” value is on record as 7 (Level 7: above 70% growth inhibition rate); the “weed control effect, Bidens pilosa (level)” value is 7 (Level 7: above 70% growth inhibition rate); the “weed control effect, Digitaria sanguinalis (level)” value was 7 (Level 7: above 70% growth inhibition rate); the “weed control effect, Echinochloa crus-galli (level)” value was 10. For the same molecule, in data set [1], the “weed control effect, Rorippa indica (level)” value was determined as 10 and the “weed control effect, Setaria viridis (level)” value is recorded as 6 (Level 6: above 60% growth inhibition rate). In data set [2], the “effect on crop, corn (level)” value is on record as 1 (Level 1: above 1-10% growth inhibition rate); the “effect on crop, rice (level)” value is listed as 3 (Level 3: above 20% growth inhibition rate); the “effect on crop, wheat (level)” value is given as 0.

For `COCCCOCc1c(S(C)(=O)=O)ccc(C(=O)c2cnn(C)c2OC(=O)c2cn(C)nc2C)c1Cl` [Compound 53], in data set [1], the “weed control effect, Abutilon theophrasti (level)” value is 7 (Level 7: above 70% growth inhibition rate); the “weed control effect, Bidens pilosa (level)” value is 7 (Level 7: above 70% growth inhibition rate); the “weed control effect, Digitaria sanguinalis (level)” value is reported as 8 (Level 8: above 80% growth inhibition rate); the “weed control effect, Echinochloa crus-galli (level)” value came out at 10. Further, in data set [1], the “weed control effect, Rorippa indica (level)” value turned out to be 10 and the “weed control effect, Setaria viridis (level)” value is 6 (Level 6: above 60% growth inhibition rate). Further, in data set [2], the “effect on crop, corn (level)” value is recorded as 1 (Level 1: above 1-10% growth inhibition rate); the “effect on crop, rice (level)” value was 3 (Level 3: above 20% growth inhibition rate); the “effect on crop, wheat (level)” value was 0.

Consider `CCOc1c(C(=O)Oc2c(C(=O)c3ccc(S(C)(=O)=O)c(COCC(F)(F)F)c3Cl)cnn2C)cnn1C` [Compound 54], for which, in data set [1], the “weed control effect, Abutilon theophrasti (level)” value is given as 7 (Level 7: above 70% growth inhibition rate); the “weed control effect, Bidens pilosa (level)” value was 7 (Level 7: above 70% growth inhibition rate); the “weed control effect, Digitaria sanguinalis (level)” value was 7 (Level 7: above 70% growth inhibition rate); the “weed control effect, Echinochloa crus-galli (level)” value was determined as 10. In data set [1], the “weed control effect, Rorippa indica (level)” value is on record as 10 and the “weed control effect, Setaria viridis (level)” value came to 10. Moreover, in data set [2], the “effect on crop, corn (level)” value is recorded as 1 (Level 1: above 1-10% growth inhibition rate); the “effect on crop, rice (level)” value is given as 3 (Level 3: above 20% growth inhibition rate); the “effect on crop, wheat (level)” value is listed as 0.

As to `CCOc1c(C(=O)Oc2c(C(=O)c3ccc(S(C)(=O)=O)c(COCC(F)(F)F)c3Cl)c(C)nn2C)cnn1C` [Compound 55], in data set [1], the “weed control effect, Abutilon theophrasti (level)” value was 7 (Level 7: above 70% growth inhibition rate); the “weed control effect, Bidens pilosa (level)” value is 7 (Level 7: above 70% growth inhibition rate); the “weed control effect, Digitaria sanguinalis (level)” value was 10; the “weed control effect, Echinochloa crus-galli (level)” value stood at 10. In data set [1], the “weed control effect, Rorippa indica (level)” value turned out to be 10 and the “weed control effect, Setaria viridis (level)” value was determined as 10. For the same molecule, in data set [2], the “effect on crop, corn (level)” value is given as 2 (Level 2: above 10% growth inhibition rate); the “effect on crop, rice (level)” value is 3 (Level 3: above 20% growth inhibition rate); the “effect on crop, wheat (level)” value worked out at 0.

Consider `C#CCOCc1c(S(C)(=O)=O)ccc(C(=O)c2c(C)nn(C)c2OC(=O)c2cnn(C)c2OCC)c1Cl` [Compound 56], for which, in data set [1], the “weed control effect, Abutilon theophrasti (level)” value is 7 (Level 7: above 70% growth inhibition rate); the “weed control effect, Bidens pilosa (level)” value is 7 (Level 7: above 70% growth inhibition rate); the “weed control effect, Digitaria sanguinalis (level)” value is given as 7 (Level 7: above 70% growth inhibition rate); the “weed control effect, Echinochloa crus-galli (level)” value was 10. Moreover, in data set [1], the “weed control effect, Rorippa indica (level)” value turned out to be 10 and the “weed control effect, Setaria viridis (level)” value was 9 (Level 9: above 90% growth inhibition rate). Also, in data set [2], the “effect on crop, corn (level)” value was determined as 0; the “effect on crop, rice (level)” value is 3 (Level 3: above 20% growth inhibition rate); the “effect on crop, wheat (level)” value worked out at 0.

Regarding `CCOc1c(C(=O)Oc2c(C(=O)c3ccc(S(C)(=O)=O)c(COCC(F)F)c3Cl)cnn2C)cnn1C` [Compound 57], in data set [1], the “weed control effect, Abutilon theophrasti (level)” value is given as 7 (Level 7: above 70% growth inhibition rate); the “weed control effect, Bidens pilosa (level)” value is on record as 7 (Level 7: above 70% growth inhibition rate); the “weed control effect, Digitaria sanguinalis (level)” value was 7 (Level 7: above 70% growth inhibition rate); the “weed control effect, Echinochloa crus-galli (level)” value turned out to be 10. In data set [1], the “weed control effect, Rorippa indica (level)” value was determined as 10 and the “weed control effect, Setaria viridis (level)” value is recorded as 9 (Level 9: above 90% growth inhibition rate). Moreover, in data set [2], the “effect on crop, corn (level)” value is recorded as 0; the “effect on crop, rice (level)” value is given as 3 (Level 3: above 20% growth inhibition rate); the “effect on crop, wheat (level)” value was determined as 0.

Take `C#CCOCc1c(S(C)(=O)=O)ccc(C(=O)c2cnn(C)c2OC(=O)c2cnn(C)c2OCC)c1Cl` [Compound 58]: in data set [1], the “weed control effect, Abutilon theophrasti (level)” value was 7 (Level 7: above 70% growth inhibition rate); the “weed control effect, Bidens pilosa (level)” value is recorded as 7 (Level 7: above 70% growth inhibition rate); the “weed control effect, Digitaria sanguinalis (level)” value was 7 (Level 7: above 70% growth inhibition rate); the “weed control effect, Echinochloa crus-galli (level)” value came out at 10. Also, in data set [1], the “weed control effect, Rorippa indica (level)” value worked out at 10 and the “weed control effect, Setaria viridis (level)” value was 9 (Level 9: above 90% growth inhibition rate). In data set [2], the “effect on crop, corn (level)” value is reported as 0; the “effect on crop, rice (level)” value is reported as 3 (Level 3: above 20% growth inhibition rate); the “effect on crop, wheat (level)” value was 0.

Regarding `CCOCCOCc1c(S(C)(=O)=O)ccc(C(=O)c2cnn(C)c2OC(=O)c2cnn(C)c2OCC)c1Cl` [Compound 59], in data set [1], the “weed control effect, Abutilon theophrasti (level)” value is given as 7 (Level 7: above 70% growth inhibition rate); the “weed control effect, Bidens pilosa (level)” value is 7 (Level 7: above 70% growth inhibition rate); the “weed control effect, Digitaria sanguinalis (level)” value is listed as 7 (Level 7: above 70% growth inhibition rate); the “weed control effect, Echinochloa crus-galli (level)” value is 8 (Level 8: above 80% growth inhibition rate). Also, in data set [1], the “weed control effect, Rorippa indica (level)” value is given as 10 and the “weed control effect, Setaria viridis (level)” value is on record as 6 (Level 6: above 60% growth inhibition rate). In data set [2], the “effect on crop, corn (level)” value is 0; the “effect on crop, rice (level)” value is reported as 3 (Level 3: above 20% growth inhibition rate); the “effect on crop, wheat (level)” value was determined as 0.

With `C#CCOCc1c(S(C)(=O)=O)ccc(C(=O)c2cnn(C)c2OC(=O)c2cnn(C)c2)c1Cl` [Compound 61], in data set [1], the “weed control effect, Abutilon theophrasti (level)” value is on record as 7 (Level 7: above 70% growth inhibition rate); the “weed control effect, Bidens pilosa (level)” value is 7 (Level 7: above 70% growth inhibition rate); the “weed control effect, Digitaria sanguinalis (level)” value is reported as 7 (Level 7: above 70% growth inhibition rate); the “weed control effect, Echinochloa crus-galli (level)” value is recorded as 10. Moreover, in data set [1], the “weed control effect, Rorippa indica (level)” value amounted to 10 and the “weed control effect, Setaria viridis (level)” value is listed as 5 (Level 5: above 50% growth inhibition rate). In data set [2], the “effect on crop, corn (level)” value stood at 0; the “effect on crop, rice (level)” value is on record as 3 (Level 3: above 20% growth inhibition rate); the “effect on crop, wheat (level)” value stood at 0.

For the origin of these results see US10556888B2, “Pyrazole compounds or salts thereof, preparation methods therefor, herbicidal compositions and use thereof” (QINGDAO KINGAGROOT CHEMICAL COMPOUNDS CO., LTD, priority 2015, dated 2020).
